Reference: patent US12319652B2, “Salts and solid forms of (R)-1-(5-methoxy-1H-indol-1-yl)-N,N-dimethylpropan-2-amine” (priority 2021, dated 2025)

Assay: Suspension equilibration of Compound 1 HCl at 20 and 40° C.
Experimental: The purpose of this panel was to determine if Form A evolves into a supra-ordinate form, the companion panel at 40° C. set-point was in place to detect enantiotropic behavior via different relative proportions in different solvents.
All isolated products, both wet and dry were consistent with Form A at both temperatures.

[1] = 2-Propanol 5.0 vol, panel at 40° C.
[2] = Acetone 5.0 vol, equilibration at 20° C.
[3] = Acetone 5.0 vol, panel at 40° C.
[4] = Acetone/Water (5% v/v, 0.5 aw) 5.0 vol, equilibration at 20° C.
[5] = Acetonitrile 5.0 vol, panel at 40° C.
[6] = Chlorobenzene 5.0 vol, equilibration at 20° C.
[7] = Chlorobenzene 5.0 vol, panel at 40° C.
[8] = DCM 5.0 vol, equilibration at 20° C.
[9] = EtOAc 5.0 vol, equilibration at 20° C.
[10] = EtOH 5.0 vol, equilibration at 20° C.
[11] = Ethanol 5.0 vol, panel at 40° C.
[12] = Ethyl acetate 5.0 vol, panel at 40° C.
[13] = Ethyl formate 5.0 vol, equilibration at 20° C.
[14] = Ethyl formate 5.0 vol, panel at 40° C.
[15] = Heptane 5.0 vol, equilibration at 20° C.
[16] = Heptane 5.0 vol, panel at 40° C.
[17] = Isopropanol/Water (12% v/v, 0.5 aw) 5.0 vol, equilibration at 20° C.
[18] = Isopropyl acetate 5.0 vol, equilibration at 20° C.
[19] = Isopropyl acetate 5.0 vol, panel at 40° C.
[20] = MEK 5.0 vol, equilibration at 20° C.
[21] = MeCN 5.0 vol, equilibration at 20° C.
[22] = MeOH 5.0 vol, equilibration at 20° C.
[23] = Methanol 5.0 vol, panel at 40° C.
[24] = Methyl acetate 5.0 vol, equilibration at 20° C.
[25] = Methyl acetate 5.0 vol, panel at 40° C.
[26] = Nitromethane 5.0 vol, panel at 40° C.
[27] = TBME 5.0 vol, equilibration at 20° C.
[28] = Toluene 5.0 vol, panel at 40° C.
[29] = Water 5.0 vol, equilibration at 20° C.

COc1ccc2c(ccn2C[C@@H](C)N(C)C)c1.Cl [Compound 1 HCl]
Pink paste: Observations (t = 10 d @ 20° C.) [4] | Observations (t = 10 d @ 20° C.) [8] | Observations (t = 10 d @ 20° C.) [10]
Suspension: Observations (t = 0 @ 20° C.) (2-Propanol 5.0 vol, equilibration at 20° C.) | Observations (t = 0 @ 20° C.) [1] | Observations (t = 1 d @ 20° C.) [1] | Observations (t = 0 @ 20° C.) [2] | Observations (t = 1 d @ 20° C.) [2] | Observations (t = 0 @ 20° C.) [3] | Observations (t = 1 d @ 20° C.) [3] | Observations (t = 0 @ 20° C.) [4] | Observations (t = 1 d @ 20° C.) [4] | Observations (t = 0 @ 20° C.) (Acetone/Water (5% v/v, 0.5 aw) 5.0 vol, panel at 40° C.) | Observations (t = 0 @ 20° C.) [5] | Observations (t = 1 d @ 20° C.) [5] | Observations (t = 0 @ 20° C.) [6] | Observations (t = 1 d @ 20° C.) [6] | Observations (t = 0 @ 20° C.) [7] | Observations (t = 1 d @ 20° C.) [7] | Observations (t = 0 @ 20° C.) [8] | Observations (t = 1 d @ 20° C.) [8] | Observations (t = 0 @ 20° C.) (DCM 5.0 vol, panel at 40° C.) | Observations (t = 1 d @ 20° C.) (DCM 5.0 vol, panel at 40° C.) | Observations (t = 0 @ 20° C.) [9] | Observations (t = 1 d @ 20° C.) [9] | Observations (t = 0 @ 20° C.) [10] | Observations (t = 1 d @ 20° C.) [10] | Observations (t = 0 @ 20° C.) [11] | Observations (t = 1 d @ 20° C.) [11] | Observations (t = 0 @ 20° C.) (Ethanol/Water (15% v/v, 0.5 aw) 5.0 vol, equilibration at 20° C.) | Observations (t = 0 @ 20° C.) [12] | Observations (t = 1 d @ 20° C.) [12] | Observations (t = 0 @ 20° C.) [13] | Observations (t = 1 d @ 20° C.) [13] | Observations (t = 0 @ 20° C.) [14] | Observations (t = 1 d @ 20° C.) [14] | Observations (t = 0 @ 20° C.) [15] | Observations (t = 1 d @ 20° C.) [15] | Observations (t = 0 @ 20° C.) [16] | Observations (t = 1 d @ 20° C.) [16] | Observations (t = 0 @ 20° C.) [17] | Observations (t = 0 @ 20° C.) (Isopropanol/Water (12% v/v, 0.5 aw) 5.0 vol, panel at 40° C.) | Observations (t = 0 @ 20° C.) [18] | Observations (t = 1 d @ 20° C.) [18] | Observations (t = 0 @ 20° C.) [19] | Observations (t = 1 d @ 20° C.) [19] | Observations (t = 0 @ 20° C.) [20] | Observations (t = 1 d @ 20° C.) [20] | Observations (t = 0 @ 20° C.) (MEK 5.0 vol, panel at 40° C.) | Observations (t = 1 d @ 20° C.) (MEK 5.0 vol, panel at 40° C.) | Observations (t = 0 @ 20° C.) [21] | Observations (t = 1 d @ 20° C.) [21] | Observations (t = 0 @ 20° C.) [22] | Observations (t = 1 d @ 20° C.) [22] | Observations (t = 0 @ 20° C.) (MeTHE 5.0 vol, equilibration at 20° C.) | Observations (t = 0 @ 20° C.) (MeTHF 5.0 vol, panel at 40° C.) | Observations (t = 1 d @ 20° C.) (MeTHF 5.0 vol, panel at 40° C.) | Observations (t = 0 @ 20° C.) [23] | Observations (t = 1 d @ 20° C.) [23] | Observations (t = 0 @ 20° C.) [24] | Observations (t = 1 d @ 20° C.) [24] | Observations (t = 0 @ 20° C.) [25] | Observations (t = 1 d @ 20° C.) [25] | Observations (t = 0 @ 20° C.) (Nitromethane 5.0 vol, equilibration at 20° C.) | Observations (t = 0 @ 20° C.) [26] | Observations (t = 1 d @ 20° C.) [26] | Observations (t = 0 @ 20° C.) [27] | Observations (t = 1 d @ 20° C.) [27] | Observations (t = 0 @ 20° C.) (THF 5.0 vol, equilibration at 20° C.) | Observations (t = 0 @ 20° C.) (THF 5.0 vol, panel at 40° C.) | Observations (t = 1 d @ 20° C.) (THF 5.0 vol, panel at 40° C.) | Observations (t = 0 @ 20° C.) (Toluene 5.0 vol, equilibration at 20° C.) | Observations (t = 0 @ 20° C.) [28] | Observations (t = 1 d @ 20° C.) [28] | Observations (t = 0 @ 20° C.) (tBME 5.0 vol, panel at 40° C.) | Observations (t = 1 d @ 20° C.) (tBME 5.0 vol, panel at 40° C.)
White Paste: Observations (t = 10 d @ 20° C.) [2] | Observations (t = 10 d @ 20° C.) [21] | Observations (t = 10 d @ 20° C.) [27]
Partial: Observations (t = 1 d @ 20° C.) [17]
White paste: Observations (t = 10 d @ 20° C.) [9]
Solution: Observations (t = 0 @ 20° C.) [29] | Observations (t = 1 d @ 20° C.) [29] | Observations (t = 0 @ 20° C.) (Water 5.0 vol, panel at 40° C.)
Yellow susp.: Observations (t = 10 d @ 20° C.) [3]
Orange susp.: Observations (t = 10 d @ 20° C.) (Water 5.0 vol, panel at 40° C.)
